Measured values reported in ChEMBL document CHEMBL5212743, “Selectivity Literature for EUbOPEN Chemogenomics Library wave 3” (2023).

Tests used:
[1] = biological target: T1, YEATS domain-containing protein 4 (Homo sapiens, UniProt O95619); test: Selectivity interaction (HTRF-based inhibition assay) EUB0000732a YEATS4
[2] = biological target: T2, YEATS domain-containing protein 2 (Homo sapiens, UniProt Q9ULM3); test: Selectivity interaction (HTRF-based inhibition assay) EUB0000732a YEATS2
T2 sequence (Q9ULM3 whole entry): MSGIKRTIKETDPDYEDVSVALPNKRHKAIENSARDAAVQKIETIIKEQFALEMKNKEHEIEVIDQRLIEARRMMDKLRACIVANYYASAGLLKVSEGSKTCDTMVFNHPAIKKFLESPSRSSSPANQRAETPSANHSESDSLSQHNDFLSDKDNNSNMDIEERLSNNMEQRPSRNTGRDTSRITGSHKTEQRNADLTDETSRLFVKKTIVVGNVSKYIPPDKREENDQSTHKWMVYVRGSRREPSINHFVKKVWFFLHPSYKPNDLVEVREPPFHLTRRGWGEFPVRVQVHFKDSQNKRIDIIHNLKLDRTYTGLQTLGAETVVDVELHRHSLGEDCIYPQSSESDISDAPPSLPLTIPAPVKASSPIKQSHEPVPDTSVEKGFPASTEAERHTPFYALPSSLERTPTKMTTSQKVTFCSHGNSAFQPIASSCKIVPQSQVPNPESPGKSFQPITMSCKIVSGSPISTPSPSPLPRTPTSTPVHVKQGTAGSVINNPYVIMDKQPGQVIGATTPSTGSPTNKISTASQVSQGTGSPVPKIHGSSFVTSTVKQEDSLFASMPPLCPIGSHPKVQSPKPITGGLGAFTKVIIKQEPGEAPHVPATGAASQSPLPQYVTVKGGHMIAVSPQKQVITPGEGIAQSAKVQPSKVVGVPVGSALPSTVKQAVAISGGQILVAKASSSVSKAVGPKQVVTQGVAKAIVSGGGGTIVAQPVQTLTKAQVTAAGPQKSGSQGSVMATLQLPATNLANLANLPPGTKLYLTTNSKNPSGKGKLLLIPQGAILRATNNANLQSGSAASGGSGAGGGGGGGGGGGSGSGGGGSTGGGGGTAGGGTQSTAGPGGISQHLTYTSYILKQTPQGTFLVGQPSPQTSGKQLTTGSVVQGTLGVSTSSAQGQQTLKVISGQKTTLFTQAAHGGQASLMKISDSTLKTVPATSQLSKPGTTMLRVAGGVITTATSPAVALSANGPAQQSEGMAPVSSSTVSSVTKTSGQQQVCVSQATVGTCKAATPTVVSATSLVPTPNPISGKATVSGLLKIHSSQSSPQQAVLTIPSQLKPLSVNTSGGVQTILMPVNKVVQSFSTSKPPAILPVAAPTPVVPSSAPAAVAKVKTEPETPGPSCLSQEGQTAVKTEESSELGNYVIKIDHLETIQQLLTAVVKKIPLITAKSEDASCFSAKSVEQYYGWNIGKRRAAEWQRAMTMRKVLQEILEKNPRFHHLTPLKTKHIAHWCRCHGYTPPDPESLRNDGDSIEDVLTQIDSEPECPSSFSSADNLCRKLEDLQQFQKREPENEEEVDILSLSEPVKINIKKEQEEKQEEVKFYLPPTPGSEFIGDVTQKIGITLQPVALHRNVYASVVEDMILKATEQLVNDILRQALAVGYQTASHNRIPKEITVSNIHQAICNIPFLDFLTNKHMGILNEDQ

[3] = biological target: 5-hydroxytryptamine receptor 2B (Homo sapiens, UniProt P41595); test: Selectivity interaction (CEREP panel (cellular receptors and 30 other enzymes)) EUB0000199c HTR2B
[4] = biological target: Kappa-type opioid receptor (Homo sapiens, UniProt P41145); test: Selectivity interaction (CEREP panel (cellular receptors and 30 other enzymes)) EUB0000199c OPRK1
Sequence of Kappa-type opioid receptor (P41145 whole entry): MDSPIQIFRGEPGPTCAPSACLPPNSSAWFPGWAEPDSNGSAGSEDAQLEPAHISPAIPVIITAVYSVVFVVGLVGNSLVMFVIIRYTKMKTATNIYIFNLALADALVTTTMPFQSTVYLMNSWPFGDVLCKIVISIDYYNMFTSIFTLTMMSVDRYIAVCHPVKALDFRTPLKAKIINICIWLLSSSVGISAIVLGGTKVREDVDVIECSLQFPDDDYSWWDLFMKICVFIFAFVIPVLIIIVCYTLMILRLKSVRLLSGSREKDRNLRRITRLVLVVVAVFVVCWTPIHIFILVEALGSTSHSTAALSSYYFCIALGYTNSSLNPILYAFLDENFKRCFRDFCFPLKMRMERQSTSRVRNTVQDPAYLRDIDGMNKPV

[5] = biological target: T3, Alpha-1B adrenergic receptor (Homo sapiens, UniProt P35368); test: Selectivity interaction (CEREP panel (cellular receptors and 30 other enzymes)) EUB0000199c ADRA1B
T3 sequence (P35368 whole entry): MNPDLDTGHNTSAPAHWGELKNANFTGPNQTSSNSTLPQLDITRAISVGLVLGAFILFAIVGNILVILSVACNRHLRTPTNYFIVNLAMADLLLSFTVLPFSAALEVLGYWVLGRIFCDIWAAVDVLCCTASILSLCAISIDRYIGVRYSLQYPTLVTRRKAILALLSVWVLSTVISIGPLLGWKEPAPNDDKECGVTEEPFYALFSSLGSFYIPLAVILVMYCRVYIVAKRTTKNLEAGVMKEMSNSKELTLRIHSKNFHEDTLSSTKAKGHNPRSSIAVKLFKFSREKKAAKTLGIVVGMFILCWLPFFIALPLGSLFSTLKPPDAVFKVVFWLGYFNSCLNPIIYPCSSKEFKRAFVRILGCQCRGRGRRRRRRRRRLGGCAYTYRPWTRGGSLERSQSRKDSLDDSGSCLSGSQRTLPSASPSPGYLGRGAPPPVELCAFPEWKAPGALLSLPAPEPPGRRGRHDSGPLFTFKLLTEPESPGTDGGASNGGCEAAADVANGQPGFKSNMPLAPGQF

[6] = biological target: SWI/SNF-related matrix-associated actin-dependent regulator of chromatin subfamily A member 2 (Homo sapiens) (UniProt P51531); test: Selectivity interaction (Bromodomain panel (DSF assay)) EUB0000199c SMARCA2
[7] = biological target: T4, Alpha-1A adrenergic receptor (Homo sapiens, UniProt P35348); test: Selectivity interaction (CEREP panel (cellular receptors and 30 other enzymes)) EUB0000199c ADRA1A
T4 sequence (P35348 whole entry): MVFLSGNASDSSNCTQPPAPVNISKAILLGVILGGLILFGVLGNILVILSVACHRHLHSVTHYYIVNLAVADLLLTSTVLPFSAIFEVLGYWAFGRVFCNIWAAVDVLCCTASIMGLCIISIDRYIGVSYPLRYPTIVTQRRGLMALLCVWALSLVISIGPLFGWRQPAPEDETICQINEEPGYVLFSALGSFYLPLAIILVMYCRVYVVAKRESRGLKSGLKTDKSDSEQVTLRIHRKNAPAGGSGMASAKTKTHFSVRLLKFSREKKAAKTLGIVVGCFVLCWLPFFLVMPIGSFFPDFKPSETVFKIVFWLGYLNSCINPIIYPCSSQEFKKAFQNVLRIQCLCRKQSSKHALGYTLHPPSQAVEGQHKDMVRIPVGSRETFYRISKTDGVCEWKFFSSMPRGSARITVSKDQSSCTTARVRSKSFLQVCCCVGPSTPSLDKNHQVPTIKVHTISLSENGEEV

[8] = biological target: T1, YEATS domain-containing protein 4; test: Selectivity interaction (Enzyme panel (PDEs, ion channels, and GPCRS, HTRF assay)) EUB0000731a YEATS4
[9] = biological target: T2, YEATS domain-containing protein 2; test: Selectivity interaction (Enzyme panel (PDEs, ion channels, and GPCRS, HTRF assay)) EUB0000731a YEATS2
[10] = biological target: Protein ENL (Homo sapiens) (UniProt Q03111); test: Selectivity interaction (DSF assay) EUB0000731a MLLT1
Sequence of Protein ENL (Homo sapiens) (Q03111 whole entry): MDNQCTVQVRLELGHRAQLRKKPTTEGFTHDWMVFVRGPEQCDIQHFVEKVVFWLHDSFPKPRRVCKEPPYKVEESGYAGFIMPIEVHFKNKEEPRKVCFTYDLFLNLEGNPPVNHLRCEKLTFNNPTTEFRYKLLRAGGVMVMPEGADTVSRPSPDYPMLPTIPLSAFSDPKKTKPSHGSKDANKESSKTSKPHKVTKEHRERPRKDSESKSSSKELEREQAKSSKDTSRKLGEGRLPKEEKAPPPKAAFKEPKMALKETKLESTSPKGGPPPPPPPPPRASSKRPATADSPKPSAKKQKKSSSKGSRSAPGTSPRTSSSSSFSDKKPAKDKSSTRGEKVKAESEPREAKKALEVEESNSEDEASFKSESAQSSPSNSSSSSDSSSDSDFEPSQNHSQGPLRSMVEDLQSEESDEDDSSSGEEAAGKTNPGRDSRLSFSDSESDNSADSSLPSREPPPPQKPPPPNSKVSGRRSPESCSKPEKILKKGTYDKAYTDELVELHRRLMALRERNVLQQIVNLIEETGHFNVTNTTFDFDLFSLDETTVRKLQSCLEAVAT

[11] = biological target: Protein AF-9 (Homo sapiens) (UniProt P42568)
Sequence of Protein AF-9 (Homo sapiens) (P42568 whole entry): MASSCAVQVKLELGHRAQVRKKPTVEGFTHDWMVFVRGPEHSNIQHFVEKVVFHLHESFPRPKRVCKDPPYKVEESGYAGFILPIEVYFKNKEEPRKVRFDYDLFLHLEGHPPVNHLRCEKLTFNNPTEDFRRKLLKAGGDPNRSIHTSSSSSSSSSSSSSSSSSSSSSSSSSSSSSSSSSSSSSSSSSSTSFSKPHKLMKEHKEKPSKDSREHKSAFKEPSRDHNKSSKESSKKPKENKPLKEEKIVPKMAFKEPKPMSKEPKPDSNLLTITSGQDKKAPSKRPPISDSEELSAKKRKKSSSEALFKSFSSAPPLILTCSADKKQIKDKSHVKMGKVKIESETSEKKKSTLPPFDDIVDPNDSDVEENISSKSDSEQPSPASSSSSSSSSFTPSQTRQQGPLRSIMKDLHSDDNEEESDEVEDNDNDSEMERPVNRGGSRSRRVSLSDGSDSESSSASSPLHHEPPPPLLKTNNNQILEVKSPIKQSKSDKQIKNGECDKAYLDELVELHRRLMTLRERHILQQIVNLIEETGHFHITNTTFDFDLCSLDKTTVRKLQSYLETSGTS

Protein AF-9 [12] = biological target: T5, Protein AF-9 (Homo sapiens, UniProt P42568)
T5 sequence (P42568 whole entry): as above

Protein AF-9 [13] = biological target: T5, Protein AF-9; remark: listed apart in the source
[14] = biological target: Bromodomain-containing protein 1 (Homo sapiens) (UniProt O95696)
[15] = biological target: T6, Adenosine receptor A3 (Homo sapiens) (UniProt P0DMS8); conditions: at 10 µM
T6 sequence (whole entry): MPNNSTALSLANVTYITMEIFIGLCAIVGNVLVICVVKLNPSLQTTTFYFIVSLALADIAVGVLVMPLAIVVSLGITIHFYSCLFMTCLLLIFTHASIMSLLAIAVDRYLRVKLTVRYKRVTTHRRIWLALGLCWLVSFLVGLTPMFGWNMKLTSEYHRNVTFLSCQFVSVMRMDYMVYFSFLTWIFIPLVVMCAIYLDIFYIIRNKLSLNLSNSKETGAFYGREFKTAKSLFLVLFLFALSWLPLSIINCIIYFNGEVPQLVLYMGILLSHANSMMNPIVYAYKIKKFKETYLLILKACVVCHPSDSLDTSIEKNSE

[16] = biological target: Bromodomain and PHD finger-containing protein 3 (Homo sapiens) (UniProt Q9ULD4)
Sequence of Bromodomain and PHD finger-containing protein 3 (Homo sapiens) (Q9ULD4 whole entry): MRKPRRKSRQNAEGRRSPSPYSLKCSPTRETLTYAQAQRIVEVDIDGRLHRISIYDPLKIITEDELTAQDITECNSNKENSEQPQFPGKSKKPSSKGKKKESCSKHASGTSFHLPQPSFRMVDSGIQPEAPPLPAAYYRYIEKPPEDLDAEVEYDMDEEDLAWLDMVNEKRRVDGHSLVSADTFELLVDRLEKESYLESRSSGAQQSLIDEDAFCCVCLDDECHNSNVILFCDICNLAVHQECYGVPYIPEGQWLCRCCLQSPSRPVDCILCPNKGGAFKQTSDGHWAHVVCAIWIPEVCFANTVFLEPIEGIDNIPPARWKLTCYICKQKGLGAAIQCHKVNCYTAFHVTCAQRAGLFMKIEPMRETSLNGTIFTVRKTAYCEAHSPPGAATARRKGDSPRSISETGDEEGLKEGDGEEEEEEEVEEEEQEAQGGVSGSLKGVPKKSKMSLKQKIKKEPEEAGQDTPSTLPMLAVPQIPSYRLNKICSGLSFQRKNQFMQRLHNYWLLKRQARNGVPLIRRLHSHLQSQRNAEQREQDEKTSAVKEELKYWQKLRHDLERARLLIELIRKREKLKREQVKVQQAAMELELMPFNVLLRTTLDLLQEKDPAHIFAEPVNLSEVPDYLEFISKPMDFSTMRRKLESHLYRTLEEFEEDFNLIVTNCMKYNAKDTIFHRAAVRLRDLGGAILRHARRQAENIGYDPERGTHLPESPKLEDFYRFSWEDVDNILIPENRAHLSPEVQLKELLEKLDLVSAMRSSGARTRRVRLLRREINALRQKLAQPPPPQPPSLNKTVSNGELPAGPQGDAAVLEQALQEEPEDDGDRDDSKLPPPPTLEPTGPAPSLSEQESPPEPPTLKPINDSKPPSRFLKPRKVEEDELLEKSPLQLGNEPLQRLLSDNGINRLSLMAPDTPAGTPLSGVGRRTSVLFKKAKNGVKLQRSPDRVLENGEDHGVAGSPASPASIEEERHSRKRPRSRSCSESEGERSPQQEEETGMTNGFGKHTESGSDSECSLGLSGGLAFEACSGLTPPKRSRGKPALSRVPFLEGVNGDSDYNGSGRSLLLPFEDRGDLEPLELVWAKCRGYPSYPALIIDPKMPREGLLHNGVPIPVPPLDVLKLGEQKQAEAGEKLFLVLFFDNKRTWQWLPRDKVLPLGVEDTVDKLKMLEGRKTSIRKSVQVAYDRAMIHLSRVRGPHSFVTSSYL

Peregrin (Homo sapiens) = Peregrin (Homo sapiens) (UniProt P55201)
Sequence of Peregrin (Homo sapiens) (P55201 whole entry): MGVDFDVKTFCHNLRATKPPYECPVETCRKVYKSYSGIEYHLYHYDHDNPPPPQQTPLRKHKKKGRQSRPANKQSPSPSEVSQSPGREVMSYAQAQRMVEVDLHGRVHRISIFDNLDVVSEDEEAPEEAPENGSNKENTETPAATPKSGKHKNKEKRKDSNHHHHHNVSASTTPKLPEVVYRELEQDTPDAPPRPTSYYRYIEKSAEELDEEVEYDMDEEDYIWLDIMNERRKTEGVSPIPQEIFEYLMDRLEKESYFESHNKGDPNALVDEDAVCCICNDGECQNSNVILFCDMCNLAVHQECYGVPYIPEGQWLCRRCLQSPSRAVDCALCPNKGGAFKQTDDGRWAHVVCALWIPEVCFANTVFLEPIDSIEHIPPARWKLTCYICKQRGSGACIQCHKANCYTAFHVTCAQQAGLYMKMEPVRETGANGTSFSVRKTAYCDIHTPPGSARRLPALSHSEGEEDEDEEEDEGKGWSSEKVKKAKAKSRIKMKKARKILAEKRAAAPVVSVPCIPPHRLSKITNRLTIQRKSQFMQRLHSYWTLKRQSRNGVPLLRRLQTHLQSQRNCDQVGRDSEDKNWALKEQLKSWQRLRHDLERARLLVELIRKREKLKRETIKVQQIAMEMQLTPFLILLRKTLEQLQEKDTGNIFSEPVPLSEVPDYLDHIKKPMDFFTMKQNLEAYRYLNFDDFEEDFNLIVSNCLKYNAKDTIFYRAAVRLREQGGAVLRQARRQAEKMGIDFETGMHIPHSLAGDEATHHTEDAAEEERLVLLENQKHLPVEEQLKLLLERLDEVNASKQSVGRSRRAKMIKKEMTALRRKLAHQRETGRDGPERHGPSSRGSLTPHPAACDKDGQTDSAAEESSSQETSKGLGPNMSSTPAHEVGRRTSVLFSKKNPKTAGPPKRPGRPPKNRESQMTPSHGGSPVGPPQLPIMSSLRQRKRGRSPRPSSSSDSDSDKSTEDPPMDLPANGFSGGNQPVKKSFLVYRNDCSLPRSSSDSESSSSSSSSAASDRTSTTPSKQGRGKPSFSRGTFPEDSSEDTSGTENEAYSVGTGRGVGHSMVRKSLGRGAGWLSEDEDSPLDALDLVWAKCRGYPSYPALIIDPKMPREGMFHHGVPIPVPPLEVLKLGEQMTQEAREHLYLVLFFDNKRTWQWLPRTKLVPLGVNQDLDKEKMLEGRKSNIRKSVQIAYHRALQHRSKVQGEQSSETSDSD

[17] = biological target: Bromodomain-containing protein 1 (Homo sapiens, UniProt O95696); test: Selectivity interaction (AlphaScreen) EUB0000323b BRD1
[18] = biological target: 5-hydroxytryptamine receptor 6 (Homo sapiens) (UniProt P50406); conditions: at 10 µM
[19] = biological target: Bromodomain-containing protein 4 (Homo sapiens, UniProt O60885)
[20] = biological target: T7, Adenosine receptor A1 (Homo sapiens) (UniProt P30542); conditions: at 10 µM
T7 sequence (whole entry): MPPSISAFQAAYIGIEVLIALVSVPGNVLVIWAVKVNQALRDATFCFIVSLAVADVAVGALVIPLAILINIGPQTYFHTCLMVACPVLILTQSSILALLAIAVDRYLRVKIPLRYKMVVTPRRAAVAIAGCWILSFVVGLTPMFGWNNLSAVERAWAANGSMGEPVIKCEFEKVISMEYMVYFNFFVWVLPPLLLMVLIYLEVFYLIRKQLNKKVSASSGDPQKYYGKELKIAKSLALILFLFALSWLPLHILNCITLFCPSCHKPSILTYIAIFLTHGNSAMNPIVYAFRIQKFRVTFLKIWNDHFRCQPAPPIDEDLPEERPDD

[21] = biological target: Vascular endothelial growth factor receptor 2 (Homo sapiens, UniProt P35968); test: Selectivity interaction (Kinase panel (literature or Upstate/Millipore)) EUB0000665a KDR
[22] = biological target: T2, YEATS domain-containing protein 2; test: Selectivity interaction (Bromodomain panel (TR-FRET assay)) EUB0000283b YEATS2
[23] = biological target: Sodium-dependent noradrenaline transporter (Homo sapiens, UniProt P23975); test: Selectivity interaction (PSP Principial panel 20118+ (panel of GPCRs, transporter, and ion channels)) EUB0000283b SLC6A2
[24] = biological target: Chromatin remodeling regulator CECR2 (Homo sapiens, UniProt Q9BXF3); test: Selectivity interaction (Bromodomain panel (TR-FRET assay)) EUB0000283b CECR2
Protein ENL [25] = biological target: T8, Protein ENL (Homo sapiens, UniProt Q03111); test: Selectivity interaction (BioLayer Interferometry assay (BLI)) EUB0000283b MLLT1
T8 sequence (Q03111 whole entry): as the sequence (Q03111 whole entry) above

Acetylcholinesterase = Acetylcholinesterase (Homo sapiens, UniProt P22303); test: Selectivity interaction (PSP Principial panel 20118+ (panel of GPCRs, transporter, and ion channels)) EUB0000283b ACHE
Histamine H3 receptor = Histamine H3 receptor (Homo sapiens, UniProt Q9Y5N1); test: Selectivity interaction (PSP Principial panel 20118+ (panel of GPCRs, transporter, and ion channels)) EUB0000283b HRH3
Tribbles homolog 2 = Tribbles homolog 2 (Homo sapiens, UniProt Q92519); test: Selectivity interaction (PSP kinase safety panel (Eurofins)) EUB0000283b TRIB2
Protein ENL [26] = biological target: T8, Protein ENL; test: Selectivity interaction (ITC) EUB0000283b MLLT1
[27] = biological target: Muscarinic acetylcholine receptor M2 (Homo sapiens, UniProt P08172); test: Selectivity interaction (PSP Principial panel 20118+ (panel of GPCRs, transporter, and ion channels)) EUB0000283b CHRM2
Sequence of Muscarinic acetylcholine receptor M2 (P08172 whole entry): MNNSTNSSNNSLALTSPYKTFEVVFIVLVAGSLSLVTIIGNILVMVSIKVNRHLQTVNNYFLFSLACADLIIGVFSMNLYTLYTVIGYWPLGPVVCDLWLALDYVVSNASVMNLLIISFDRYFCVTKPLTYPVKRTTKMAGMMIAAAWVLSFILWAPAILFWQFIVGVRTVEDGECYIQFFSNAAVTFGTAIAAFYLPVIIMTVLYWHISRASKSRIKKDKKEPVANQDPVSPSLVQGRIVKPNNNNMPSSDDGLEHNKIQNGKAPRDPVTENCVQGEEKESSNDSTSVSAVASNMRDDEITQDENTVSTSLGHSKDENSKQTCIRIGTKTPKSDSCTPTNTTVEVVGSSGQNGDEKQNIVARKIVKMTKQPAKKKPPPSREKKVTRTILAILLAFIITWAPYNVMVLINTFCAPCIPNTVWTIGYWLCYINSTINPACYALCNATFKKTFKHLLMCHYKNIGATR

[28] = biological target: Serine/threonine-protein kinase pim-1 (Homo sapiens, UniProt P11309); test: Selectivity interaction (PSP kinase safety panel (Eurofins)) EUB0000283b PIM1
Sequence of Serine/threonine-protein kinase pim-1 (P11309 whole entry, the tested form may be a part): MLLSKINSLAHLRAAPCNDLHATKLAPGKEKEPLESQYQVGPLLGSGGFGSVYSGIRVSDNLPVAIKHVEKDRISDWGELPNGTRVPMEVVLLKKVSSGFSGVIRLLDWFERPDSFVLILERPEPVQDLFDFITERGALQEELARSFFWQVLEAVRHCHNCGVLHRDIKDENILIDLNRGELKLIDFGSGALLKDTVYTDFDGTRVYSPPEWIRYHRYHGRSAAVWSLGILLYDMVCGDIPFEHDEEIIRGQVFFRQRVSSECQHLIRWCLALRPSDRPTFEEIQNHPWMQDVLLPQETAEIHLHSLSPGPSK

[29] = biological target: T1, YEATS domain-containing protein 4; test: Selectivity interaction (Bromodomain panel (TR-FRET assay)) EUB0000283b YEATS4

T1 sequence (O95619 whole entry, the tested form may be a part): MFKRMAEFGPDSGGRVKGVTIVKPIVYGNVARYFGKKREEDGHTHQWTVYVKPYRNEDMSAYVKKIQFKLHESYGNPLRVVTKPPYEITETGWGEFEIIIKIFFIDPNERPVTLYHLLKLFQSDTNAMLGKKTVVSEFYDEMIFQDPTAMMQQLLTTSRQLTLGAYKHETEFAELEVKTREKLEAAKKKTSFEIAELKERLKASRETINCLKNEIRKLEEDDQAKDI

CN(C)C(=O)c1ccc(-c2cc(C(=O)N(C)C3CCCC3)no2)cc1O
IC50 [1]: > 30000 nM | IC50 [2]: > 30000 nM

O=C(/C=C/N1C[C@H]2C[C@@H]1CN2c1ccccn1)c1ccccc1O
IC50 [3]: 4000 nM | IC50 [4]: 13000 nM | IC50 [5]: 3600 nM | dTm [6]: 9.2 K | IC50 [7]: 440 nM

CN(C)C(=O)c1ccc(-c2cc(C(=O)N[C@@H]3CCc4ccccc43)no2)cc1O
IC50 [8]: > 40000 nM | IC50 [9]: > 40000 nM | dTm [10]: 3.61 K | dTm [11]: 5.13 K | Kd (Protein AF-9 [12]): 76 nM | Kd (Protein AF-9 [13]): 110 nM

COc1cc2c(cc1NS(=O)(=O)c1ccc(Br)cc1C)n(C)c(=O)n2C
dTm [14]: 3.1 K | % of inhibition [15]: 53% | dTm [16]: 3.3 K | dTm (Peregrin (Homo sapiens)): 6.5 K | IC50 [17]: 2200 nM | % of inhibition [18]: 54% | dTm [19]: 2.1 K | % of inhibition [20]: 82%

Cn1cc(-c2[nH]c3cc(NC(=O)[C@H](N)C4CCCCC4)cc4c3c2C=NNC4=O)cn1
IC50 [21]: 8 nM

C[C@H]1CCCN1Cc1nc2cc(NC(=O)c3ccc4cnccc4c3)ccc2[nH]1
IC50 [22]: > 20000 nM | IC50 [23]: 8700 nM | IC50 [24]: > 40000 nM | Kd (Protein ENL [25]): 75 nM | IC50 (Acetylcholinesterase): 250 nM | IC50 (Histamine H3 receptor): 290 nM | IC50 (Tribbles homolog 2): 3500 nM | Kd (Protein ENL [26]): 109 nM | IC50 [27]: 1800 nM | IC50 [28]: 8600 nM | IC50 [29]: > 20000 nM
